Values after ≈ are worked out from the molar mass of the structure shown.
Legend:
[1] = system: Mycobacterium tuberculosis; experiment: Antitubercular activity against Mycobacterium tuberculosis H37Rv assessed as bacterial growth inhibition incubated for 5 days by resazurin microtiter assay; type: functional; conditions: 120 h, time 5 day
[2] = system: Mycobacterium tuberculosis; experiment: Antitubercular activity against Mycobacterium tuberculosis H37Rv assessed as bacterial growth inhibition at 1 uM incubated for 5 days by resazurin microtiter assay relative to control; type: functional; conditions: 120 h, time 5 day
[3] = system: Mycobacterium tuberculosis; experiment: Antitubercular activity against Mycobacterium tuberculosis H37Rv assessed as bacterial growth inhibition at 10 uM incubated for 5 days by resazurin microtiter assay relative to control; type: functional; conditions: 120 h, time 5 day
[4] = system: Mycobacterium tuberculosis; experiment: Antitubercular activity against Mycobacterium tuberculosis H37Rv by broth microdilution method; type: functional
[5] = biological target: Voltage-gated inwardly rectifying potassium channel KCNH2 (Homo sapiens, UniProt Q12809); experiment: Inhibition of fluorescently labelled tracer binding to human ERG by competitive binding assay
Voltage-gated inwardly rectifying potassium channel KCNH2, sequence (Q12809 whole entry): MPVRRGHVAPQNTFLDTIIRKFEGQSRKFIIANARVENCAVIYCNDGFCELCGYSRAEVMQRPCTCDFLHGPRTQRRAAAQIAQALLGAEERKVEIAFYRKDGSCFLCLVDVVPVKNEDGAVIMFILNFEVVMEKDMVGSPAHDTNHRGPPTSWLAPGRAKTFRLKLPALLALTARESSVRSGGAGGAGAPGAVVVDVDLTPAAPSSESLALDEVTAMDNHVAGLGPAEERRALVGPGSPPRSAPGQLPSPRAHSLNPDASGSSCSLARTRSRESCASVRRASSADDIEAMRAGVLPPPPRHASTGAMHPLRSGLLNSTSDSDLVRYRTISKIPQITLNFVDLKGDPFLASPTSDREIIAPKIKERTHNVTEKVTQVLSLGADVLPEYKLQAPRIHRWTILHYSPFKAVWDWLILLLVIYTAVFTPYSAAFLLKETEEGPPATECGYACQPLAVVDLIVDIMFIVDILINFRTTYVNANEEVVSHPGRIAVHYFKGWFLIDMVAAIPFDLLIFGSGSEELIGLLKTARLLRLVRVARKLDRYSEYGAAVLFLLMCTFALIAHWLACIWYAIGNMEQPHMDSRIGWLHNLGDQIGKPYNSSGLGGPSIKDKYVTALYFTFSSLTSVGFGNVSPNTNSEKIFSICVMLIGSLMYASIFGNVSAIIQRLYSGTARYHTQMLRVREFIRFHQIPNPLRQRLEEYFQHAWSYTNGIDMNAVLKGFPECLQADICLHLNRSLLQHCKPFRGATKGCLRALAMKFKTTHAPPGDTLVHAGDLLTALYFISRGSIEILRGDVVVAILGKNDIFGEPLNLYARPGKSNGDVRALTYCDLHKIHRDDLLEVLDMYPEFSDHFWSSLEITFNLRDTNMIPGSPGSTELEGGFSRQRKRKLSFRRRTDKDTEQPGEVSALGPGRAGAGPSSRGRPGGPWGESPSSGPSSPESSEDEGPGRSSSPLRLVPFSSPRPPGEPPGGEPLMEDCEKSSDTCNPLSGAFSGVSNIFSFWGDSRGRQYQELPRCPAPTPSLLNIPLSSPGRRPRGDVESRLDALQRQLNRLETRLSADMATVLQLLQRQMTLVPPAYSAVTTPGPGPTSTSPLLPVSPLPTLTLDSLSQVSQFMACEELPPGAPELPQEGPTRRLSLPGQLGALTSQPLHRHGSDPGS

SMILES: COc1nc(OC)c(C(c2ccccc2)C(O)(CCN(C)C)c2cccc3ccccc23)cc1-c1ccc(OC(F)(F)F)cc1 (configuration not stated)
- MIC90 [1]: 2.34 µM (≈ 1.44 µg/mL)

SMILES: COc1ncc(-c2ccccc2F)cc1C(c1ccccc1)C(O)(CCN(C)C)c1cccc2ccccc12 (configuration not stated)
- MIC90 [1]: 2.6 µM (≈ 1.35 µg/mL)
- inhibition at 1 µM [2]: 0%
- inhibition at 10 µM [3]: 100%

SMILES: COc1ncc(-c2ccc(F)c(Cl)c2)cc1C(c1ccccc1)C(O)(CCN(C)C)c1cccc2ccccc12 (configuration not stated)
- inhibition at 1 µM [2]: 0%
- inhibition at 10 µM [3]: 100%

SMILES: COc1nc2ccc(Br)cc2cc1[C@@H](c1ccccc1)[C@@](O)(CCN(C)C)c1cccc2ccccc12 [BEDAQUILINE]
- MIC90 [1]: 0.35 µM (≈ 0.194 µg/mL)
- MIC90 [4]: 0.027 µM (≈ 0.015 µg/mL)

SMILES: COc1nc(OC)c(C(c2ccccc2)C(O)(CCN(C)C)c2cccc3ccccc23)cc1-c1ccc(F)cc1 (configuration not stated)
- MIC90 [1]: 2.41 µM (≈ 1.33 µg/mL)

SMILES: COc1ncc(-c2cccc(Cl)c2)cc1C(c1ccccc1)C(O)(CCN(C)C)c1cccc2ccccc12 (configuration not stated)
- MIC90 [1]: 7.94 µM (≈ 4.26 µg/mL)
- inhibition at 1 µM [2]: 5%
- inhibition at 10 µM [3]: 100%

SMILES: COc1nc(OC)c(C(c2ccccc2)C(O)(CCN(C)C)c2cccc3ccccc23)cc1-c1ccc(C#N)cc1 (configuration not stated)
- MIC90 [1]: 1.24 µM (≈ 0.692 µg/mL)

SMILES: COc1ncc(-c2ccc(F)cc2C#N)cc1C(c1ccccc1)C(O)(CCN(C)C)c1cccc2ccccc12 (configuration not stated)
- inhibition at 1 µM [2]: 0%
- inhibition at 10 µM [3]: 100%

SMILES: COc1ncc(-c2ccc(C(F)(F)F)cc2)cc1C(c1ccccc1)C(O)(CCN(C)C)c1cccc2ccccc12 (configuration not stated)
- MIC90 [1]: 4.26 µM (≈ 2.43 µg/mL)
- inhibition at 1 µM [2]: 5%
- inhibition at 10 µM [3]: 100%

SMILES: COc1ncc(-c2ccc(OC(F)(F)F)cc2)cc1C(c1ccccc1)C(O)(CCN(C)C)c1cccc2ccccc12 (configuration not stated)
- MIC90 [1]: 6.05 µM (≈ 3.55 µg/mL)
- inhibition at 1 µM [2]: 10%
- inhibition at 10 µM [3]: 100%

SMILES: COc1ncc(-c2ccc(Cl)cc2Cl)cc1C(c1ccccc1)C(O)(CCN(C)C)c1cccc2ccccc12 (configuration not stated)
- inhibition at 1 µM [2]: 0%
- inhibition at 10 µM [3]: 100%

SMILES: COc1ncc(-c2ccc(C)c(Cl)c2)cc1C(c1ccccc1)C(O)(CCN(C)C)c1cccc2ccccc12 (configuration not stated)
- inhibition at 1 µM [2]: 5%
- inhibition at 10 µM [3]: 100%

SMILES: COc1ncc(-c2ccccc2Cl)cc1C(c1ccccc1)C(O)(CCN(C)C)c1cccc2ccccc12 (configuration not stated)
- MIC90 [1]: 4.52 µM (≈ 2.43 µg/mL)
- inhibition at 1 µM [2]: 0%
- inhibition at 10 µM [3]: 100%

SMILES: COc1ncc(-c2ccccc2)cc1C(c1ccccc1)C(O)(CCN(C)C)c1cccc2ccccc12 (configuration not stated)
- MIC90 [1]: 5.51 µM (≈ 2.77 µg/mL)
- inhibition at 1 µM [2]: 10%
- inhibition at 10 µM [3]: 100%

SMILES: CO[C@H]1/C=C/O[C@@]2(C)Oc3c(C)c(O)c4c(O)c(c(/C=N/N5CCN(C)CC5)c(O)c4c3C2=O)NC(=O)/C(C)=C\C=C\[C@H](C)[C@H](O)[C@@H](C)[C@@H](O)[C@@H](C)[C@H](OC(C)=O)[C@@H]1C [RIFAMPIN]
- MIC90 [1]: 0.006 µM (≈ 0.00494 µg/mL)

SMILES: COc1ncc(-c2ccc(C(F)(F)F)cc2Cl)cc1C(c1ccccc1)C(O)(CCN(C)C)c1cccc2ccccc12 (configuration not stated)
- inhibition at 1 µM [2]: 5%
- inhibition at 10 µM [3]: 100%

SMILES: COc1ncc(-c2ccc(F)cc2F)cc1C(c1ccccc1)C(O)(CCN(C)C)c1cccc2ccccc12 (configuration not stated)
- inhibition at 1 µM [2]: 0%
- inhibition at 10 µM [3]: 100%

SMILES: COc1ncc(-c2ccc(Cl)cc2)cc1C(c1ccccc1)C(O)(CCN(C)C)c1cccc2ccccc12 (configuration not stated)
- MIC90 [1]: 6.94 µM (≈ 3.73 µg/mL)
- inhibition at 1 µM [2]: 5%
- inhibition at 10 µM [3]: 100%

SMILES: COc1ncc(-c2ccc(Cl)c(C(F)(F)F)c2)cc1C(c1ccccc1)C(O)(CCN(C)C)c1cccc2ccccc12 (configuration not stated)
- inhibition at 1 µM [2]: 0%
- inhibition at 10 µM [3]: 100%

SMILES: COc1ncc(-c2ccccc2OC(F)(F)F)cc1C(c1ccccc1)C(O)(CCN(C)C)c1cccc2ccccc12 (configuration not stated)
- inhibition at 1 µM [2]: 0%
- inhibition at 10 µM [3]: 100%

SMILES: COc1ncc(-c2cccc(F)c2)cc1C(c1ccccc1)C(O)(CCN(C)C)c1cccc2ccccc12 (configuration not stated)
- MIC90 [1]: 2.51 µM (≈ 1.31 µg/mL)
- inhibition at 1 µM [2]: 5%
- inhibition at 10 µM [3]: 100%

SMILES: COc1ncc(-c2cccc3ccccc23)cc1C(c1ccccc1)C(O)(CCN(C)C)c1cccc2ccccc12 (configuration not stated)
- inhibition at 1 µM [2]: 5%
- inhibition at 10 µM [3]: 100%

SMILES: COc1nc(OC)c(C(c2ccccc2)C(O)(CCN(C)C)c2cccc3ccccc23)cc1-c1ccc(Cl)cc1 (configuration not stated)
- MIC90 [1]: 3.44 µM (≈ 1.95 µg/mL)

SMILES: COc1nc(OC)c(C(c2ccccc2)C(O)(CCN(C)C)c2cccc3ccccc23)cc1-c1ccccc1 (configuration not stated)
- MIC90 [1]: 3.88 µM (≈ 2.07 µg/mL)

SMILES: COc1ccc(-c2cc(C(c3ccccc3)C(O)(CCN(C)C)c3cccc4ccccc34)c(OC)nc2OC)cc1 (configuration not stated)
- MIC90 [1]: 3.94 µM (≈ 2.22 µg/mL)

SMILES: COc1ncc(-c2ccc(F)c(C)c2)cc1C(c1ccccc1)C(O)(CCN(C)C)c1cccc2ccccc12 (configuration not stated)
- inhibition at 1 µM [2]: 5%
- inhibition at 10 µM [3]: 100%

SMILES: COc1nc(OC)c([C@@H](c2ccccc2)[C@@](O)(CCN(C)C)c2cccc3ccccc23)cc1-c1ccc(C#N)cc1
- MIC90 [1]: 1 µM (≈ 0.558 µg/mL)
- EC50 [5]: 1520 nM

SMILES: COc1ncc(-c2ccccc2C#N)cc1C(c1ccccc1)C(O)(CCN(C)C)c1cccc2ccccc12 (configuration not stated)
- inhibition at 1 µM [2]: 0%
- inhibition at 10 µM [3]: 90%

SMILES: COc1nc(OC)c([C@H](c2ccccc2)[C@](O)(CCN(C)C)c2cccc3ccccc23)cc1-c1ccc(C#N)cc1
- MIC90 [1]: 8 µM (≈ 4.46 µg/mL)

SMILES: COc1ncc(Br)cc1C(c1ccccc1)C(O)(CCN(C)C)c1cccc2ccccc12 (mixture of isomers)
- MIC90 [1]: > 10 µM

SMILES: COc1ncc(-c2ccc(Cl)c(Cl)c2)cc1C(c1ccccc1)C(O)(CCN(C)C)c1cccc2ccccc12 (configuration not stated)
- inhibition at 1 µM [2]: 0%
- inhibition at 10 µM [3]: 100%

SMILES: COc1ncc(-c2ccc(F)cc2)cc1C(c1ccccc1)C(O)(CCN(C)C)c1cccc2ccccc12 (configuration not stated)
- MIC90 [1]: 0.8 µM (≈ 0.417 µg/mL)
- inhibition at 1 µM [2]: 100%
- inhibition at 10 µM [3]: 100%

SMILES: COc1ncc(-c2ccc(C(C)(C)C)cc2)cc1C(c1ccccc1)C(O)(CCN(C)C)c1cccc2ccccc12 (configuration not stated)
- MIC90 [1]: 3.09 µM (≈ 1.73 µg/mL)
- inhibition at 1 µM [2]: 90%
- inhibition at 10 µM [3]: 100%
